Like-named read-outs stand apart in the source and are kept apart here.
Legend:
[1] = molecular target: T1, DYRK1A (Homo sapiens, UniProt Q13627); set-up: method as in PMID 23237976, PMID 23124214, PMID 25549552; conditions: thieno[2,3-d]pyrimidin-4-amine congeners, already published data; cited from earlier work
[2] = tested on: CK1δ/ε; set-up: method as in PMID 23237976, PMID 23124214, PMID 25549552; conditions: already published data, cited from earlier work; for IC50: thieno[2,3-d]pyrimidin-4-amine congeners
[3] = molecular target: CDK5/p25 (Homo sapiens, UniProt Q00535); experiment: Kinase inhibition assay, CDK5/p25; type: biochemical; conditions: for IC50: average of triplicate determination (<10% variation), read-out: Kinase inhibitory potency (IC50) CDK5/p25
Chain of CDK5/p25 (Q00535 whole entry, species assumed): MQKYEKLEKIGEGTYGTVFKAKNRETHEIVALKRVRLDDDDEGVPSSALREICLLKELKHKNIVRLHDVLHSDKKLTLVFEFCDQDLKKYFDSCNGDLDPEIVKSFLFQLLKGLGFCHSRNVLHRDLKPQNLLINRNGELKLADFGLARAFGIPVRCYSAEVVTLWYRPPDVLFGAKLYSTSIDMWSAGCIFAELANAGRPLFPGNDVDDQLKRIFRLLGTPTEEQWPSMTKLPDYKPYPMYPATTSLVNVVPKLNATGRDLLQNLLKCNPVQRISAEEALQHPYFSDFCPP
Chain of CDK5/p25 (Q15078 99-307 partner limits assumed, species assumed): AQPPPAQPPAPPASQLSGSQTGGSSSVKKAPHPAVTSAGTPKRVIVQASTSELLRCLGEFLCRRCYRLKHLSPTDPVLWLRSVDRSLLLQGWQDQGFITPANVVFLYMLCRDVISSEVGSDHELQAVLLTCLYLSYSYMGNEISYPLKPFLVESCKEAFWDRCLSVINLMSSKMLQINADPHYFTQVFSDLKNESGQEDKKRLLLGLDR
Procedure: (§1) The inhibitory potency of the synthesized pyrimido[4,5-b]indol-4-amines and pyrimido[5,4-b]indol-4-amines towards CDK5/p25, CK1δ/ε, DYRK1A, and GSK-3α/β was investigated according preceding procedures.
(§2) Buffers, kinase preparations, and assays were performed as described in ref. [12, 13, 14] according methods initially published in previous works.

[4] = molecular target: T1, DYRK1A; experiment: Kinase inhibition assay, DYRK1A; type: biochemical; conditions: for IC50: read-out: Kinase inhibitory potency (IC50) DYRK1A
Procedure: as §1, §2

[5] = molecular target: CK1δ/ε; experiment: Kinase inhibition assay, CK1δ/ε; type: biochemical; conditions: for IC50: average of triplicate determination (<10% variation), read-out: Kinase inhibitory potency (IC50) CK1δ/ε
Procedure: as §1, §2

[6] = molecular target: GSK-3α/β; experiment: Kinase inhibition assay, GSK-3α/β; type: biochemical; conditions: for IC50: average of triplicate determination (<10% variation), read-out: Kinase inhibitory potency (IC50) GSK-3α/β
Procedure: as §1, §2

[7] = average of triplicate determination (<10% variation)

Compound	IC50 [1] [µM]	Activity against CK1 (in words) [2]	IC50 [2] [nM]	IC50 [3] [µM]	IC50 [4, 7] [µM]	IC50 [5] [nM]	IC50 [6] [µM]	Inhibitory activity against CDK5/p25 (in words) [3]	Inhibitory activity against GSK3α/β (in words) [6]	Inhibitory activity against DYRK1A (in words) [4]	Inhibitory activity against CK1δ/ε (in words) [5]	IC50 [4] [µM]
Nc1ncnc2c1sc1ncccc12 [Compound 15]	> 10	micromolar and submicromolar activity	31	–	–	–	–	–	–	–	–	–
CCn1c2ccc([N+](=O)[O-])cc2c2ncnc(N)c21 [Compound 2c, 5-Ethyl-8-nitro-5H-pyrimido[5,4-b]indol-4-amine]	–	–	–	> 10	> 10	> 10000	> 10	–	–	–	–	–
CCn1c2ccccc2c2c(N)ncnc21 [Compound 3c, 9-Ethyl-9H-pyrimido[4,5-b]indol-4-amine]	–	–	–	> 10	9.8	1600	> 10	–	–	–	–	–
COc1ccc2c(c1)[nH]c1c(C)nccc12 [Compound 11a, harmine, reference compound]	–	–	–	–	–	1500	> 10	definitely inactive	definitely inactive	–	–	–
Nc1ncnc2c1c1ccc([N+](=O)[O-])cc1n2Cc1ccccc1 [Compound 4d, 9-Benzyl-7-nitro-9H-pyrimido[4,5-b]indol-4-amine]	–	–	–	> 10	> 10	> 10000	> 10	–	–	–	–	–
Nc1ncnc2c3ccccc3n(Cc3ccccc3)c12 [Compound 1d, 5-Benzyl-5H-pyrimido[5,4-b]indol-4-amine]	–	–	–	> 10	> 10	600	> 10	–	–	lack of activity	–	–
Cn1c2ccc([N+](=O)[O-])cc2c2ncnc(N)c21 [Compound 2b, 5-Methyl-8-nitro-5H-pyrimido[5,4-b]indol-4-amine]	–	–	–	> 10	> 10	> 10000	> 10	–	–	–	–	–
Nc1ncnc2c1[nH]c1ccccc12 [Compound 1a, 5H-Pyrimido[5,4-b]indol-4-amine]	–	–	–	> 10	2.2	2000	> 10	–	–	–	–	–
Nc1ncnc2c1c1ccccc1n2Cc1ccccc1 [Compound 3d, 9-Benzyl-9H-pyrimido[4,5-b]indol-4-amine]	–	–	–	> 10	> 10	2700	> 10	–	–	–	–	–
Cn1c2ccccc2c2ncnc(N)c21 [Compound 1b, 5-Methyl-5H-pyrimido[5,4-b]indol-4-amine]	–	–	–	> 10	5.8	4000	> 10	–	–	–	–	–
Nc1ncnc2c1[nH]c1ccc([N+](=O)[O-])cc12 [Compound 2a, 8-Nitro-5H-pyrimido[5,4-b]indol-4-amine]	–	–	–	> 10	7.6	> 10000	> 10	–	–	low micromolar activity	no inhibition	–
Nc1ncnc2c1sc1nccnc12 [Compound 13]	> 10	micromolar and submicromolar activity	2400	–	–	–	–	–	–	–	–	–
Nc1ncnc2[nH]c3ccccc3c12 [Compound 3a, 9H-Pyrimido[4,5-b]indol-4-amine]	–	–	–	6	3.1	700	> 10	–	–	–	–	–
CCn1c2cc([N+](=O)[O-])ccc2c2c(N)ncnc21 [Compound 4c, 9-Ethyl-7-nitro-9H-pyrimido[4,5-b]indol-4-amine]	–	–	–	> 10	5.9	1600	> 10	–	–	–	–	–
Nc1ncnc2c3cc([N+](=O)[O-])ccc3n(Cc3ccccc3)c12 [Compound 2d, 5-Benzyl-8-nitro-5H-pyrimido[5,4-b]indol-4-amine]	–	–	–	> 10	> 10	> 10000	> 10	–	–	–	–	–
Cn1c2ccccc2c2c(N)ncnc21 [Compound 3b, 9-Methyl-9H-pyrimido[4,5-b]indol-4-amine]	–	–	–	> 10	> 10	2500	> 10	–	–	–	–	–
CCn1c2cc(OC)ccc2c2ccnc(C)c21 [Compound 11c, 9-Ethyl-7-methoxy-1-methyl-β-carboline]	–	–	–	> 10	–	> 10000	> 10	totally inactive	totally inactive	–	totally inactive	0.037
Nc1ncnc2c1sc1ccccc12 [Compound 12]	33	–	790	–	–	–	–	–	–	–	–	–
Nc1ncnc2c1sc1cccnc12 [Compound 14]	6	micromolar and submicromolar activity	1800	–	–	–	–	–	–	–	–	–
COc1ccc2c3ccnc(C)c3n(Cc3ccccc3)c2c1 [Compound 11d, 9-Benzyl-7-methoxy-1-methyl-β-carboline]	–	–	–	> 10	0.059	> 10000	> 10	totally inactive	totally inactive	–	totally inactive	–
Nc1ncnc2[nH]c3cc([N+](=O)[O-])ccc3c12 [Compound 4a, 7-Nitro-9H-pyrimido[4,5-b]indol-4-amine]	–	–	–	> 10	7.6	3500	> 10	–	–	–	–	–
Cn1c2cc([N+](=O)[O-])ccc2c2c(N)ncnc21 [Compound 4b, 9-Methyl-7-nitro-9H-pyrimido[4,5-b]indol-4-amine]	–	–	–	> 10	> 10	2800	> 10	–	–	–	–	–
CCn1c2ccccc2c2ncnc(N)c21 [Compound 1c, 5-Ethyl-5H-pyrimido[5,4-b]indol-4-amine]	–	–	–	> 10	4.1	2800	> 10	–	–	–	–	–
COc1ccc2c3ccnc(C)c3n(C)c2c1 [Compound 11b, 7-Methoxy-1,9-dimethyl-β-carboline]	–	–	–	> 10	–	> 10000	> 10	totally inactive	totally inactive	–	totally inactive	–

From PMC7281298, “Exploring Kinase Inhibition Properties of 9H-pyrimido[5,4-b]- and [4,5-b]indol-4-amine Derivatives” (Pharmaceuticals, 2020)
